Results as given in patent publication US12534432B2, “Trisulfide compound” (Kyowa Pharma Chemical Co., Ltd., priority 2020, dated 2026).

Test: hydrogen sulfide-trapping ability by methylene blue spectrophotometry
Conditions: room temperature
Experimental: The presence or absence of a hydrogen sulfide-trapping ability (hydrogen sulfide elimination effect) of pantethine trisulfide (PANSSS) was evaluated through methylene blue spectrophotometry.
Sodium sulfide nonahydrate (Na2S·9H2O) was dissolved in purified water to prepare a 50 μmol/L sodium sulfide nonahydrate solution, which was used as a H2S standard solution.
p-Aminodimethylaniline was dissolved in 10 N sulfuric acid to prepare 1 mmol/L DPDA solution.
Iron (III) chloride hexahydrate was dissolved in 1% sulfuric acid to prepare a 3 mmol/L FeCl3·6H2O solution.
A 0.5 mmol/L pantethine trisulfide solution was prepared by dissolving pantethine trisulfide in 25 mmol/L phosphate buffer (PBS, pH 7).
10 mL of the H2S standard solution (0.5 μmol, standard) was added to a stoppered test tube and stirred. 1 mL (0.5 μmol, 1 eq.) of PBS (blank) or the pantethine trisulfide solution was added to this solution and stirred for a predetermined time (0, 5, 15 or 30 minutes). After stirring, 1 mL (1 μmol, 2 eq.) of the DPDA solution and 1 mL (3 μmol, 6 eq.) of the FeCl3·6H2O solution were added thereto and further stirred, and the absorbance (wavelength: 668 nm) of the solution was measured after the absorbance of the solution stopped changing (that is, after color development due to methylene blue production was completed). This test was conducted under the conditions of room temperature.

## CC(C)(CO)[C@@H](O)C(=O)NCCC(=O)NCCSSSCCNC(=O)CCNC(=O)[C@H](O)C(C)(C)CO [pantethine trisulfide]
0.5 μmol H2S, 1 eq. pantethine trisulfide in PBS pH 7, stirring 0, 5, 15 or 30 minutes
  absorbance (wavelength: 668 nm) compared to the blank: the longer the contact time (reaction time) between H2S and pantethine trisulfide, the lower the absorbance compared to the blank
Methylene blue spectrophotometry, 1 eq. to H2S
  hydrogen sulfide-trapping ability (hydrogen sulfide elimination effect): had a hydrogen sulfide-trapping ability
